Assay results reported in US7169424B2, “Mold inhibitor having reduced corrosiveness” (Kemin Industries, Inc., priority 2003, dated 2007).

Assay: pH
Type: physicochemical
Details: free propionic acid, stated in the discussion

pH: less than 2
SMILES: CCC(=O)O [free propionic acid, propionic acid]
